Measurements reported in publication PMC10731806, “Characterization of an iPSC-based barrier model for blood-brain barrier investigations using the SBAD0201 stem cell line” (Fluids and Barriers of the CNS, 2023).
Blank lines part the entries; values can stand above or below the compound they belong to.

Key:
GLUT-1 = molecular target: T1, GLUT-1 (Homo sapiens, UniProt P11166); assay: Apical-to-basolateral transport of GLUT-1 substrates with and without GLUT-1 inhibitors; type: cell-based; settings: A-B, glucose-free HBSS, one hour; for effect on apparent permeability of 6-NBDG: 6-NBDG 100 µM; for effect on apparent permeability of [^3H]-glucose: [3H]-glucose 20 nM
T1 construct: endogenous in cells; host or cells: SBAD0201 hiPSC-derived brain capillary endothelial-like cells (BCECs)
T1 sequence (P11166 1-492): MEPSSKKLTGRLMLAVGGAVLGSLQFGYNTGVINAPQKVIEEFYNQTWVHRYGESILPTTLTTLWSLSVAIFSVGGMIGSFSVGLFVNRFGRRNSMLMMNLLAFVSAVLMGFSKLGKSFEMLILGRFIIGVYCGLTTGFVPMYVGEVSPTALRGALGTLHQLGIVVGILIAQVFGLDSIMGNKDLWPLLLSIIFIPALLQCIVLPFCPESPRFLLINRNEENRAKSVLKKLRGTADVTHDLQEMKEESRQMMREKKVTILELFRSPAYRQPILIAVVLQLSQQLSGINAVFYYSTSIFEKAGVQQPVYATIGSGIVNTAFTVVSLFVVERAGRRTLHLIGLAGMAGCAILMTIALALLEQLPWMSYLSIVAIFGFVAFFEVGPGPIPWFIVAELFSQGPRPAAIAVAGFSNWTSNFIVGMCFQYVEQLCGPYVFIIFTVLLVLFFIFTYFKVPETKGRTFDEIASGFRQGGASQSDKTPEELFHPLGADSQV
Procedure: (§1) HBSS without glucose was used for transport assays involving [^3H]-glucose and 6-NBDG, whereas HBSS^+ was used for [^3H]-L-leucine. […] The function of GLUT-1 and LAT-1 were evaluated by co-application of the GLUT-1 inhibitors BAY876 (1 and 10 μM) and phloretin (100 μM) and the LAT-1 inhibitors JPH203 (10 μM) and BCH (100 μM). The inhibitors were added to the transport buffer in both chambers 15 min before the addition of the substrates.

GLUT1 = settings: cited from earlier work
P-gp = assay: Bidirectional transport and uptake of P-gp substrates with and without zosuquidar; settings: for vectorial transport (bidirectional): EC-/- medium
LAT-1 = molecular target: T2, LAT-1 (Homo sapiens, UniProt Q01650); assay: Apical-to-basolateral transport of [3H]-L-leucine with and without LAT-1 inhibitors; type: cell-based; settings: [3H]-L-leucine 9.3 nM, A-B, HBSS+, one hour
T2 construct: endogenous in cells; host or cells: SBAD0201 hiPSC-derived brain capillary endothelial-like cells (BCECs)
Procedure: as §1

T2 sequence (Q01650 whole entry): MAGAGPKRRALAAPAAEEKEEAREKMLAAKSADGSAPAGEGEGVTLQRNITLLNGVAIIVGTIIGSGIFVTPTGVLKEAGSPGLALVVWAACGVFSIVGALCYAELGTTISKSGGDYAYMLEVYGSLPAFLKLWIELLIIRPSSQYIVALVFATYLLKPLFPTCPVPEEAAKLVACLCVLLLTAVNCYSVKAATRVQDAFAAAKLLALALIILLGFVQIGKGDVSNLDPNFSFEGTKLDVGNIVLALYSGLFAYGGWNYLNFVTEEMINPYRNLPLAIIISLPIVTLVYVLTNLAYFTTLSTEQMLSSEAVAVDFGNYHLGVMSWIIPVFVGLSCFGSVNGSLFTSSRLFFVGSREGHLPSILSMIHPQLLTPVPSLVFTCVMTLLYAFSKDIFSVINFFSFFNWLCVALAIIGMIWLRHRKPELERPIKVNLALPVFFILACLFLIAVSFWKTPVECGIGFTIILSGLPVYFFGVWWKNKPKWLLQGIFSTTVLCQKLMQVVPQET
T2 sequence (P08195 102-630 partner): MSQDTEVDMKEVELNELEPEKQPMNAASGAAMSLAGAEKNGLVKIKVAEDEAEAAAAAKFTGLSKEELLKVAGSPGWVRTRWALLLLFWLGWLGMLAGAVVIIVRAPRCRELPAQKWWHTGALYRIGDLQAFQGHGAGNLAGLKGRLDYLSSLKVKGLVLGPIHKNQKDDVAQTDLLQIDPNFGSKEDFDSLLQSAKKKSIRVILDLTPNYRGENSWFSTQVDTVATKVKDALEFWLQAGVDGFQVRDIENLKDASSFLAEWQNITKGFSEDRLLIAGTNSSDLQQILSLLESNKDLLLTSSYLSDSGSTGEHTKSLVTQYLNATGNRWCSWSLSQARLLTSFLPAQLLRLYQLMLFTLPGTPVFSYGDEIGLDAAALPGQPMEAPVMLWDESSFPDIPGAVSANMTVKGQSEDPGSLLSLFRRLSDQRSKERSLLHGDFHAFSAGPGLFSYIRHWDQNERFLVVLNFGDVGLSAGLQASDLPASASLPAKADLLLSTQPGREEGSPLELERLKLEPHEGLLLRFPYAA

SMILES: O=C(CCc1ccc(O)cc1)c1c(O)cc(O)cc1O [phloretin]
effect on apparent permeability of 6-NBDG (GLUT-1; 100 µM phloretin): sensitive to the addition
effect on apparent permeability of [^3H]-glucose (GLUT-1; 100 µM phloretin): sensitive to the addition

SMILES: C[C@H]1O[C@@H](O[C@H]2[C@@H](O)C[C@H](O[C@H]3[C@@H](O)C[C@H](O[C@H]4CC[C@@]5(C)[C@H](CC[C@@H]6[C@@H]5C[C@@H](O)[C@]5(C)[C@@H](C7=CC(=O)OC7)CC[C@]65O)C4)O[C@@H]3C)O[C@@H]2C)C[C@H](O)[C@@H]1O [[^3H]-digoxin, digoxin]
vectorial transport (bidirectional) (P-gp; [3H]-digoxin 38.2 nM, two hours): No vectorial transport

SMILES: COC(=O)c1ccccc1-c1c2ccc(=N)cc-2oc2cc(N)ccc12 [rhodamine 123]
vectorial transport (bidirectional) (P-gp; rhodamine 123 5 µM, two hours): No vectorial transport

SMILES: NC1(C(=O)O)CC2CCC1C2 (centres unmarked) [BCH]
effect on transport of [3H]-L-leucine (LAT-1; BCH 100 µM): significantly decreased

SMILES: O[C@@H](COc1cccc2ncccc12)CN1CCN([C@@H]2c3ccccc3[C@@H]3[C@H](c4ccccc42)C3(F)F)CC1 [zosuquidar]
effect on transport of rhodamine 123 and [3H]-digoxin (P-gp; zosuquidar 0.4 µM, both chambers, two hours): neither the transport nor the uptake of the substrates was affected
effect on uptake of rhodamine 123 and [3H]-digoxin (P-gp; zosuquidar 0.4 µM, uptake probed after the transport study): neither the transport nor the uptake of the substrates was affected

More lines, main results first:

effect on apparent permeability of 6-NBDG (GLUT-1; 10 µM BAY876): sensitive to the addition
effect on apparent permeability of [^3H]-glucose (GLUT-1; 10 µM BAY876): sensitive to the addition
SMILES: Cc1c(NC(=O)c2cc(C(N)=O)nc3cc(F)ccc23)c(C(F)(F)F)nn1Cc1ccc(C#N)cc1 [BAY876]
selectivity for GLUT1 relative to GLUT2, GLUT3, GLUT4 (GLUT1): at least 130 fold

effect on transport of [3H]-L-leucine (LAT-1; JPH203 10 µM): significantly decreased
SMILES: Nc1cc(COc2c(Cl)cc(C[C@H](N)C(=O)O)cc2Cl)c2oc(-c3ccccc3)nc2c1 [JPH203]
